Test results taken from BindingDB's records for doi:10.1021/jm00083a013 (1992).

Key:
[1] = molecular target: Aminopeptidase N (Rattus norvegicus) (UniProt P15684); experiment: Compound was evaluated for its inhibitory potency against purified membrane bound rat brain Aminopeptidase
Aminopeptidase N = molecular target: T1, Aminopeptidase N (Rattus norvegicus, UniProt P15684); experiment: ChEBML_35366
T1 sequence (P15684 whole entry): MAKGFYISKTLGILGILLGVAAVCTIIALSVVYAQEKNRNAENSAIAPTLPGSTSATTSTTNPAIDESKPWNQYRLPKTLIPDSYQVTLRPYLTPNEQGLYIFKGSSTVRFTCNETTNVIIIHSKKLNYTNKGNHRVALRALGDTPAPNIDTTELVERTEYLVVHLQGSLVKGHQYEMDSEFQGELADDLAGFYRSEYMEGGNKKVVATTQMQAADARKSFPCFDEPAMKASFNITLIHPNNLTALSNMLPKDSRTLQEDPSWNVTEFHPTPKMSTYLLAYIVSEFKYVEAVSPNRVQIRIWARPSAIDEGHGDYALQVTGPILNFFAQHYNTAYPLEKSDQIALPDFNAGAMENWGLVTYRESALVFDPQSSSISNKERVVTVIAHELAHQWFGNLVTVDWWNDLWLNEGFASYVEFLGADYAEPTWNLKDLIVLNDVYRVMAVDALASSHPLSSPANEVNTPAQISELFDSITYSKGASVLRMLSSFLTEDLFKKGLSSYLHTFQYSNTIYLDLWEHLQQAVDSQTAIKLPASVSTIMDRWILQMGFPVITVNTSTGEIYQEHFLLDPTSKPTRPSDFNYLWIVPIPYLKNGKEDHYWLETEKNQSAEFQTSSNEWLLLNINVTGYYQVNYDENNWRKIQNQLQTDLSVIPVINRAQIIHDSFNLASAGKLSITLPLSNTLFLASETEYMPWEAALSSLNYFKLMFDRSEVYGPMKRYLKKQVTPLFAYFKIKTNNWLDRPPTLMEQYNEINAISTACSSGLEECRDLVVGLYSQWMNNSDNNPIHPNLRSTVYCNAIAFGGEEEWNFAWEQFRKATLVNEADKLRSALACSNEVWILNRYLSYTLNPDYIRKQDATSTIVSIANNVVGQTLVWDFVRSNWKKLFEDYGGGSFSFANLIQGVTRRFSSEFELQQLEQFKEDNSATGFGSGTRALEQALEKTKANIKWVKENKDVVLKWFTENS
Protocol: Compound was evaluated for its inhibitory potency against purified membrane bound rat brain Aminopeptidase M (AP-M) using [3H]Leu-enkephalin as substrate

Aminopeptidase B [2] = molecular target: T2, Aminopeptidase B (Rattus norvegicus, UniProt O09175); experiment: Compound was evaluated for its inhibitory potency against purified membrane bound rat brain Aminopeptidase B (AP-B) using L-lysine-beta napthylamide as substrate
T2 sequence (O09175 whole entry): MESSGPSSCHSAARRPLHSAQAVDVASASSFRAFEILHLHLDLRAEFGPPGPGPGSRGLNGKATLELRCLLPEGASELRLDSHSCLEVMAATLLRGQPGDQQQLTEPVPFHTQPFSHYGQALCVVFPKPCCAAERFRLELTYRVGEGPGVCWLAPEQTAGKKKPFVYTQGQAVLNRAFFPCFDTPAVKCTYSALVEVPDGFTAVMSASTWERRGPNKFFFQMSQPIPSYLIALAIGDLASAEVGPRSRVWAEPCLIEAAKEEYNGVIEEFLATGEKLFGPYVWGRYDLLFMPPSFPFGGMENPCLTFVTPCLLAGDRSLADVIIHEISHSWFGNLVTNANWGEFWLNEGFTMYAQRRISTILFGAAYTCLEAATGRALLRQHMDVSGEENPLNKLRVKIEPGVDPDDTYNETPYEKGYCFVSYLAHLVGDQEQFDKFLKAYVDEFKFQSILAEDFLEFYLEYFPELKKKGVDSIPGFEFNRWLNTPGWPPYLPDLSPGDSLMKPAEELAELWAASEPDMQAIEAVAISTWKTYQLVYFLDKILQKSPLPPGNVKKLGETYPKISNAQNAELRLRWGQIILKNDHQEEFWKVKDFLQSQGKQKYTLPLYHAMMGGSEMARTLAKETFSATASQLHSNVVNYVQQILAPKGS

Aminopeptidase B [3] = molecular target: T2, Aminopeptidase B; experiment: ChEBML_35343
Protocol: Compound was evaluated for its inhibitory potency against purified membrane bound rat brain Aminopeptidase B using L-lysine-beta napthylamide as substrate

## COC(=O)[C@H](CC(C)C)NC(=O)[C@@H](O)[C@H](N)CCCCN
[1]
  IC50: 2.01 µM

## COC(=O)[C@H](CC(C)C)NC(=O)[C@H](O)[C@@H](N)CCCCN
Aminopeptidase N
  IC50: > 1000 µM
Aminopeptidase B [2]
  IC50: 500 µM

## COC(=O)[C@H](Cc1c[nH]c2ccccc12)NC(=O)[C@H](O)[C@@H](N)CCCCN
Aminopeptidase B [3]
  IC50: 500 µM
